This is an account of results in publication PMC11089505, “Structural Elucidation and Antiviral Activity of Covalent Cathepsin L Inhibitors” (Journal of Medicinal Chemistry, 2024).

Values joined by “and” are separate entries in the source; they are usually repeats but may differ in a detail not shown here. Equal entries are not always repeated. Where two headings read alike, the source gives them in different places. Square brackets hold non-standard residues; d marks the D form. Peptide text beside a SMILES is read from it. Nle = CCCC[C@H](N)C(=O)O

Series [1] addresses T1, CatL (Homo sapiens, UniProt P07711, T223A).
T1 construct: made in house; host or cells: Komagataella pastoris strain GS115
Briefly: NanoDSF, thermal stability of CatL. In kind it is binding. Particulars: for 2:1, Tm average (CatL): 2:1 compound to protein; for 20:1, Tm average (CatL): 20:1 compound to protein. Background: Differential scanning fluorimetry follows unfolding on heating by fluorescence.

A further series has as its target SARS-CoV-2 Mpro (Severe acute respiratory syndrome coronavirus 2, UniProt P0DTD1). The class given is binding. The note with it: 2:1 compound to protein.
The target of series [2] is T1, CatL. Briefly: CatL inactivation assay comparing epoxides at pH 6 and pH 4. The class given is biochemical. As for the experimental part: (§1) Experiments were performed in a solution of 50 mM sodium acetate, pH 4.0, 50 mM NaCl, 0.1% PEG 6000, and 5 mM DTT. Distinct assays with epoxide inhibitors at pH 6.0 were performed in 50 mM sodium phosphate buffer, 50 mM NaCl, 5 mM DTT, 0.1% PEG 6000, adjusted to pH 6.0.
(§2) M1000 pro plate reader (Tecan), the fluorescent peptide substrate Z-RR-AMC, and excitation and emission wavelengths of 370 and 460 nm, respectively.
(§3) At first, the inhibitor concentration span was optimized for each inhibitor and the assay buffer. For this initial screening, CatL (5 nM) was mixed with different concentrations of inhibitors (1 nM–50 μM) to determine the range of their inhibition. […] Reaction data were fitted to the […] in GraphPad Prism 9 software: Y = bottom + (top – bottom)/(1 + 10^∧((log IC50 – X) × HillSlope)); X is the log of dose or concentration, Y is the response (fluorescence signal), decreasing as X increases, top and bottom are the plateaus in the same units as Y, log IC50 same log units as X, HillSlope is the slope factor or called the Hill slope.
Figure S7. Inactivation of CatL.
(1 picture or pasted object on this page, not shown here)

Series [3] can be described thus: Cell viability assay (CellTiter-Blue). Particulars: African green monkey.
Series [4] relates to SARS-CoV-2-GFP in Vero E6 cells. Briefly: microbe, parasite or virus in culture. The class given is cell-based.
The target in a further series is T2, cathepsin L (Homo sapiens, UniProt P07711, T223A).
T2 construct: made in house; host or cells: Komagataella pastoris strain GS115
T2 sequence (P07711 114-333 T223A): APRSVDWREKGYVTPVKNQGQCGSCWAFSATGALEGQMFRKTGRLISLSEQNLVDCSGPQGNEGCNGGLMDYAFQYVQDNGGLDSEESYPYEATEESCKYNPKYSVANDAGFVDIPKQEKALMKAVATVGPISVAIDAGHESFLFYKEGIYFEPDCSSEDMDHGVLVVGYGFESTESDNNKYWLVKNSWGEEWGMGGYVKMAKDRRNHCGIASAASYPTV
The series can be described thus: MALDI-TOF analysis of covalent CatL-inhibitor complex. The class given is binding. Particulars: 37 °C. As for the experimental part:
Experiments were performed in two different buffers, one at pH 4.0 (100 mM sodium acetate, pH 4.0, 50 mM NaCl, 5 mM DTT) and the other at pH 6.0 (100 mM sodium phosphate, pH 6.0, 50 mM NaCl, 5 mM DTT).
Mass spectrometry was performed on an UltrafleXtreme III MALDI-TOF/TOF mass spectrometer (Bruker, Billerica, MA). Samples were prepared on a standard steel target as described by Wenzel et al.[71] The spectra were acquired in a linear mode with a mass range of 20–50 kDa. […] The spectra were externally calibrated with aldolase and BSA standards (Sigma-Aldrich). Acquisition, processing, and calibration were performed using FlexControl 3.0 and FlexAnalysis software (Bruker).
(B) Two-dimensional interaction plot based on chain A according to Dis-
Figure S6. […] Activated matured cathepsin L (3 µM)
Molar ratio 1:10 pH = 4.0
Molar ratio 1:10 pH = 6.0 […]

Series [5] concerns CatL. Particulars: cited from earlier work.
Another series can be described thus: in vitro. Particulars: African green monkey.
Series [6] deals with T1, CatL. The series can be described thus: CatL inhibition assay (Ki), substrate Z-RR-AMC. The class given is biochemical. As for the experimental part:
as §1, §2, §3

Where [7] appears, read: Severe acute respiratory syndrome coronavirus 2, Vero C1008, 48 h, read-out: EC50 (48 h).
Where [8] appears, read: Severe acute respiratory syndrome coronavirus 2, Vero C1008, 24 h, read-out: EC50 (after 24 h).
Setting [9] is: Severe acute respiratory syndrome coronavirus 2, Vero C1008, 48 h, read-out: EC50 (after 48 h).

T1 sequence (P07711 114-333 T223A): as above

By viability is commonly meant a read-out of living cells in per cent, often relative to untreated cells. The term EC50 denotes the midpoint of the concentration-response curve. On to `O=C(NCc1ccccc1)[C@H](Cc1ccccc1)NC(=O)[C@H]1O[C@@H]1C(=O)NCCc1ccc(O)cc1` [CAA0225, (2S.3S)-2-N-[(1S)-1-(Benzylcarbamoyl)-2-phenylethyl]-3-N-[2-(4-hydroxyphenyl)ethyl]oxirane-2.3-dicarboxamide], for which the “2:1, Tm average (CatL)” value on CatL [1] turned out to be 70 °C. Also, the “20:1, Tm average (CatL)” value at CatL [1] came out at 78.5 °C. Further, the “2:1, Tm average (Mpro)” value on SARS-CoV-2 Mpro worked out at 53.3 °C. In addition, the “Inactivation Rate” value on CatL [2] (CAA0225, pH 4, 4.39 nM) was 0.0001763 per second; at CatL [2] (CAA0225, pH 4, 5.85 nM), 0.0002627 per second; at CatL [2] (CAA0225, pH 4, 6.59 nM) it was 0.0001334 per second; at CatL [2] (CAA0225, pH 4, 8.78 nM) it was 0.0003675 per second and 0.0002752 per second; on CatL [2] (CAA0225, pH 4, 9.88 nM), 0.0001166 per second; on CatL [2] (CAA0225, pH 4, 13.17 nM), 0.0002828 per second and 0.0003022 per second. Further, the “Inactivation Rate” value on CatL [2] (CAA0225, pH 4, 14.82 nM) was 0.0003059 per second; on CatL [2] (CAA0225, pH 4, 19.75 nM), 0.0002683 per second and 0.0004006 per second; on CatL [2] (CAA0225, pH 4, 22.22 nM), 0.0004569 per second; at CatL [2] (CAA0225, pH 4, 29.63 nM) it was 0.0004182 per second and 0.0006192 per second; on CatL [2] (CAA0225, pH 4, 33.34 nM), 0.0007535 per second; at CatL [2] (CAA0225, pH 4, 44.44 nM), 0.0007461 per second and 0.001023 per second. Also, the “Inactivation Rate” value is 0.001182 per second at CatL [2] (CAA0225, pH 4, 50.00 nM); 0.001354 per second and 0.001764 per second at CatL [2] (CAA0225, pH 4, 66.67 nM); 0.001979 per second on CatL [2] (CAA0225, pH 4, 100.00 nM); 0.0002723 per second at CatL [2] (CAA0225, pH 6, 4.39 nM); 0.0006424 per second and 0.0005666 per second on CatL [2] (CAA0225, pH 6, 5.85 nM); 0.0004593 per second on CatL [2] (CAA0225, pH 6, 6.59 nM). The “Inactivation Rate” value on CatL [2] (CAA0225, pH 6, 8.78 nM) is 0.001025 per second and 0.001163 per second; at CatL [2] (CAA0225, pH 6, 9.88 nM), 0.0009595 per second; at CatL [2] (CAA0225, pH 6, 13.17 nM) it was 0.001923 per second and 0.002013 per second; on CatL [2] (CAA0225, pH 6, 14.82 nM), 0.001982 per second; on CatL [2] (CAA0225, pH 6, 19.75 nM), 0.00308 per second and 0.003226 per second; on CatL [2] (CAA0225, pH 6, 22.22 nM), 0.003696 per second. Moreover, the “Inactivation Rate” value on CatL [2] (CAA0225, pH 6, 29.63 nM) is 0.00521 per second and 0.005796 per second; at CatL [2] (CAA0225, pH 6, 33.34 nM) it was 0.006322 per second; on CatL [2] (CAA0225, pH 6, 44.44 nM) it was 0.007455 per second and 0.01045 per second; on CatL [2] (CAA0225, pH 6, 50.00 nM) it was 0.009878 per second; at CatL [2] (CAA0225, pH 6, 66.66 nM) it was 0.01058 per second and 0.01915 per second. Also, in series [3], the viability at 48 h, 1e-05 µM was found to be 103%. For the same molecule, in [3], the viability at 48 h, 0.0001 µM turned out to be 103%. The viability at 48 h, 0.001 µM in series [3] was 101%. Besides, the viability at 48 h, 0.01 µM in [3] stood at 104%. Besides, the viability at 48 h, 0.1 µM in series [3] turned out to be 100%. Further, in series [3], the viability at 48 h, 1 µM was 105%. In addition, the viability at 48 h, 10 µM in series [3] worked out at 105%. Moreover, the EC50 in [4] (setting [7]) was < 500 nM. Also, the “Mass change of cathepsin L main peak with vs without inhibitor” value at cathepsin L (pH 4.0, molar ratio 1:10, 15 min) is recorded as 477.7 Da; at cathepsin L (pH 6.0, molar ratio 1:10, 15 min), 493.8 Da.
As a reminder, the IC50 is the concentration that gives 50% inhibition. As to `CC(C)C[C@@H](C=O)NC(=O)[C@@H](NS(=O)(=O)c1ccc(F)cc1)C(C)C` [CI-VI, 2-[(4-Fluorophenyl)sulfonylamino]-3-methyl-N-(4-methyl-1-oxopentan-2-yl)butanamide], on CatL [1], the “ΔTm [K] for CatL, 2:1 ratio” value is listed as 15.2 ± 0.4 K; the “2:1, Tm average (CatL)” value was determined as 78.3 °C; the “20:1, Tm average (CatL)” value came out at 81.4 °C. In addition, on CatL [1] (pH 5), the “ΔTm (for CatL), 2:1 compound to protein mixing ratio” value was 15,2 ± 0,4 °C and 15.2 °C; the “ΔTm (for CatL), 20:1 compound to protein mixing ratio” value was 18,3 ± 0,1 °C and 18.3 °C. At SARS-CoV-2 Mpro, the “2:1, Tm average (Mpro)” value came to 54.5 °C. In the series with CatL [5] (Table S1, SI reference list), the IC50 was 1.6 nM. Moreover, the EC50 in series [4] (Severe acute respiratory syndrome coronavirus 2, Vero C1008, 24 h, read-out: EC50 (24 h)) was found to be 37.7 nM. In addition, in series [4] (setting [8]), the EC50 amounted to 37.7 nM. For the same molecule, the EC50 in [4] (setting [9]) stood at 1330 nM.
As a reminder, the Ki is the equilibrium dissociation constant of an inhibitor or competing ligand from its target. For `CCCC[C@@H](C=O)NC(=O)[C@H](CC(C)C)NC(=O)OCc1ccccc1` [Calpeptin], on CatL [1], the “2:1, Tm average (CatL)” value is 81.8 °C and the “20:1, Tm average (CatL)” value is 82 °C. Moreover, on CatL [5] (read-out: Ki of CatL inhibition), the Ki is 0.13 nM. For the same molecule, in the series “in vitro”, the viability at 48 h, 1e-05 µM is 100%; the viability at 48 h, 0.0001 µM came to 98.4%; the viability at 48 h, 0.001 µM amounted to 99.3%; the viability at 48 h, 0.01 µM is 97.9%. For the same molecule, in the series “in vitro”, the viability at 48 h, 0.1 µM was determined as 101%; the viability at 48 h, 1 µM came to 101%; the viability at 48 h, 10 µM was determined as 105%.
Regarding `CCCC[C@@H](C=O)NC(=O)[C@H](CC(C)C)NC(=O)[C@H](CC(C)C)NC(C)=O` [MG-101, Acetyl-Leu-Leu-Nle-aldehyde] (Ac-Leu-Leu-[Nle]-aldehyde), at SARS-CoV-2 Mpro, the “2:1, Tm average (Mpro)” value was 60.4 °C. Moreover, the Ki was 0.064 nM and 0.0645 nM on CatL [6] (read-out: Ki); 0.5 nM on CatL [5] (read-out: Ki). Besides, the remaining activity at 69 pM at CatL [6] (read-out: Residual activity (Vi/V0), MG-101 0.069 nM) is 91.8%. Moreover, the remaining activity at 99 pM at CatL [6] (read-out: Residual activity (Vi/V0), MG-101 0.099 nM) was 86.4%. Further, the remaining activity at 0.000141 µM at CatL [6] (read-out: Residual activity (Vi/V0), MG-101 0.141 nM) came to 80.3%. The remaining activity at 0.000202 µM on CatL [6] (read-out: Residual activity (Vi/V0), MG-101 0.202 nM) turned out to be 78.5%. On CatL [6] (read-out: Residual activity (Vi/V0), MG-101 0.288 nM), the remaining activity at 0.000288 µM stood at 70.1%. Moreover, the remaining activity at 0.000412 µM at CatL [6] (read-out: Residual activity (Vi/V0), MG-101 0.412 nM) amounted to 58.3%. Also, on CatL [6] (read-out: Residual activity (Vi/V0), MG-101 0.588 nM), the remaining activity at 0.000588 µM amounted to 43.3%. Moreover, the EC50 in series [4] (setting [8]) is 4.39 nM; in series [4] (setting [7]), < 500 nM; in series [4] (setting [9]) it was 198 nM.
